± gives the standard deviation of the averaged measurements.
How the values were obtained:
Conditions in all cases: 72 h
Calu-3 [1] = assay: cell viability relative to DMSO; higher = less toxic
Caco-2 [2] = assay: as above
HepG2 [3] = assay: as above
U2OS [4] = assay: as above
Calu-3 [5] = assay: drug sensitivity score (DSS) for viability; higher = more toxic; extreme values may be limits of the assay
Caco-2 [6] = assay: as above
HepG2 [7] = assay: as above
U2OS [8] = assay: as above
Calu-3 [9] = assay: relative viability EC50 (midpoint between 100% and the lowest measured viability); higher = less toxic
Caco-2 [10] = assay: as above
HepG2 [11] = assay: as above
U2OS [12] = assay: as above
Vero E6 [13] = assay: cell viability relative to DMSO; higher = less toxic
Vero E6 [14] = assay: drug sensitivity score (DSS) for viability; higher = more toxic; extreme values may be limits of the assay
Vero E6 [15] = assay: relative viability EC50 (midpoint between 100% and the lowest measured viability); higher = less toxic

Compound	cell viability (Calu-3 [1]; 1 nM)	cell viability (Calu-3 [1]; 10 nM)	cell viability (Calu-3 [1]; 100 nM)	cell viability (Calu-3 [1]; 1000 nM)	cell viability (Calu-3 [1]; 10000 nM)	cell viability (Caco-2 [2]; 1 nM)	cell viability (Caco-2 [2]; 10 nM)	cell viability (Caco-2 [2]; 100 nM)	cell viability (Caco-2 [2]; 1000 nM)	cell viability (Caco-2 [2]; 10000 nM)	cell viability (HepG2 [3]; 1 nM)	cell viability (HepG2 [3]; 10 nM)	cell viability (HepG2 [3]; 100 nM)	cell viability (HepG2 [3]; 1000 nM)	cell viability (HepG2 [3]; 10000 nM)	cell viability (U2OS [4]; 1 nM)	cell viability (U2OS [4]; 10 nM)	cell viability (U2OS [4]; 100 nM)	cell viability (U2OS [4]; 1000 nM)	cell viability (U2OS [4]; 10000 nM)	drug sensitivity score (Calu-3 [5])	drug sensitivity score (Caco-2 [6])	drug sensitivity score (HepG2 [7])	drug sensitivity score (U2OS [8])	relative viability EC50 (Calu-3 [9])	relative viability EC50 (Caco-2 [10])	relative viability EC50 (HepG2 [11])	relative viability EC50 (U2OS [12])	cell viability (Vero E6 [13]; 1 nM)	cell viability (Vero E6 [13]; 10 nM)	cell viability (Vero E6 [13]; 100 nM)	cell viability (Vero E6 [13]; 1000 nM)	cell viability (Vero E6 [13]; 10000 nM)	drug sensitivity score (Vero E6 [14])	relative viability EC50 (Vero E6 [15])
Cc1cccc(C)c1NC(=O)[C@@H](C)N [tocainide]	105%	92.3%	90%	108%	103%	96.8%	95.8%	97.5%	101%	95.5%	107%	102%	91.5%	94.2%	95.3%	100%	102%	99.2%	104%	98.5%	0	0	0	0	> 10 µM	> 10 µM	> 10 µM	> 10 µM	–	–	–	–	–	–	–
CN(C)CCOC(c1ccccc1)c1ccccc1 [diphenhydramine]	97.5%	104%	114%	112%	105%	100%	93.9%	96.1%	91.8%	128%	97.8%	93.3%	95.3%	103%	84.4%	102%	103%	104%	96.5%	102%	0	0	0.2	0	> 10 µM	> 10 µM	> 10 µM	> 10 µM	–	–	–	–	–	–	–
CC(C)C[C@@H](NC(=O)[C@H](Cc1ccccc1)NC(=O)CNC(=O)[C@@H](C)NC(=O)[C@@H](N)Cc1ccc(O)cc1)C(=O)O [BW-180C]	97.6%	94.5%	91.1%	100%	89.4%	113%	96.9%	98.6%	102%	101%	105%	98.4%	99.4%	102%	100%	99.4%	97.8%	104%	104%	99.1%	0	0	0	0	> 10 µM	> 10 µM	> 10 µM	> 10 µM	–	–	–	–	–	–	–
C[C@H](NC(=O)[C@@H](Cc1c[nH]c2ccccc12)NC(=O)[C@@H](N)Cc1c[nH]cn1)C(=O)N[C@@H](Cc1c[nH]c2ccccc12)C(=O)N[C@H](Cc1ccccc1)C(=O)N[C@@H](CCCCN)C(N)=O	94.6%	109%	107%	107%	99.1%	92%	97%	98.7%	99.6%	110%	–	–	–	–	–	–	–	–	–	–	0	0	–	–	> 10 µM	> 10 µM	–	–	108%	100%	99.1%	100%	102%	0	> 10 µM
COC(=O)/C=C/C(=O)OCCN1C(=O)CCC1=O [diroximel-fumarate]	112%	112%	120%	92.5%	123%	109%	104%	107%	97.6%	92.4%	103%	115%	87.7%	115%	52.1%	101%	101%	105%	103%	98.9%	0	0	1.8	0	> 10 µM	> 10 µM	–	> 10 µM	98.4%	102%	92.2%	99%	106%	0	> 10 µM
CCn1cc(C(=O)O)c(=O)c2cnc(N3CCNCC3)nc21 [pipemidic-acid]	107%	99.1%	103%	96.9%	91.9%	94.2%	102%	95.5%	99.4%	92.9%	110%	108%	107%	99.8%	102%	98.7%	101%	97.4%	104%	100%	0	0	0	0	> 10 µM	> 10 µM	> 10 µM	> 10 µM	–	–	–	–	–	–	–
Cc1ccnc2c1CCCC2C(N)=S (stereo unspecified) [isotiquimide]	95.1%	86.7%	98.1%	107%	106%	106%	102%	99.9%	96%	110%	103%	100%	92.4%	99.4%	98.6%	102%	97.4%	100%	101%	102%	0	0	0	0	> 10 µM	> 10 µM	> 10 µM	> 10 µM	–	–	–	–	–	–	–
OC(c1ccc(-c2ccc(CN3CCN(Cc4ccncc4)CC3)cc2)c(F)c1)(C(F)(F)F)C(F)(F)F [SR-2211]	101%	101%	93.6%	95.9%	95.5%	113%	95.4%	101%	86.4%	76.1%	94.2%	101%	98.8%	95.4%	58%	98.4%	106%	102%	102%	95.7%	0	2.4	2.9	0	> 10 µM	> 10 µM	–	> 10 µM	103%	99.8%	103%	100%	103%	0	> 10 µM
Oc1cc(O)c(Cl)cn1 [gimeracil]	107%	105%	104%	98.3%	92.4%	97.8%	92.7%	97.7%	95.8%	98.1%	105%	106%	98.3%	96.2%	87.2%	100%	100%	104%	98.5%	104%	0	0	0.2	0	> 10 µM	> 10 µM	> 10 µM	> 10 µM	–	–	–	–	–	–	–
NCCCC[C@H](N[C@@H](CCc1ccccc1)C(=O)O)C(=O)N1CCC[C@H]1C(=O)O [lisinopril]	109%	94.7%	110%	98.8%	93.4%	–	–	–	–	–	–	–	–	–	–	102%	95.7%	95%	97%	97.2%	0	–	–	0	> 10 µM	–	–	> 10 µM	104%	105%	102%	101%	99.2%	0	> 10 µM
CN1CCC(Nc2ncc3ncnc(Nc4ccc(F)c(Cl)c4)c3n2)CC1 [BIBX-1382]	101%	115%	95.8%	70.2%	27.4%	99%	104%	85.4%	81.4%	63.3%	102%	93.6%	98.8%	95.8%	68.3%	99.4%	104%	95.9%	98.9%	83.8%	7.6	4.4	2.1	0.4	1.21 µM	–	–	> 10 µM	104%	104%	90.1%	61.7%	36.2%	8.4	0.634 µM
COc1cc2ncnc(Nc3cccc(Cl)c3F)c2cc1OC(=O)N1CCN(C)C[C@H]1C [AZD3759]	86.5%	93.6%	93.1%	48.4%	32.2%	94.4%	91.1%	91.2%	90.1%	81.9%	101%	86.6%	104%	95.8%	101%	96.8%	101%	95.6%	95.6%	92.8%	10.6	1.1	0	0	0.442 µM	> 10 µM	> 10 µM	> 10 µM	94.7%	90.3%	81.8%	60.8%	51.6%	9.3	–
Cn1nccc1Nc1nccc(-c2ccn([C@H](CO)c3ccc(Cl)c(F)c3)c(=O)c2)n1 [GDC-0994]	99.2 ± 6.9%	103 ± 3%	97.9 ± 7.3%	96.45 ± 0.78%	110 ± 4.3%	97.6 ± 3.7%	98.4 ± 3.1%	87.8 ± 2.5%	82.4 ± 5.8%	79.9 ± 6.7%	106.8 ± 0.57%	96.8 ± 3%	74.8 ± 3.2%	38.2 ± 1.2%	40.6 ± 3.4%	96.9 ± 0.14%	101.3 ± 0.99%	92.2 ± 3.8%	97.4 ± 0.85%	96.8 ± 2.9%	0	3.15 ± 2.6	14.5 ± 0.28	0	> 10 µM	> 10 µM	0.119 µM	> 10 µM	104 ± 7.4%	101 ± 3.4%	101 ± 5.4%	87.75 ± 0.35%	70.9 ± 5.8%	2.6 ± 0.28	–
CCCCCCCCCCCCCCCc1cccc(OCC(=O)NCCO)c1 [PDP-EA]	102%	87.2%	94.9%	91.5%	91.7%	105%	109%	98.2%	109%	109%	102%	113%	95.6%	115%	103%	–	–	–	–	–	0	0	0	–	> 10 µM	> 10 µM	> 10 µM	–	–	–	–	–	–	–	–
COC[C@H](C)Oc1cc(O[C@@H](C)Cc2ccccc2)cc(C(=O)Nc2ccc(C(=O)O)cn2)c1 [GKA-50]	96.9%	103%	97.8%	107%	98.2%	100%	97%	96.2%	96.2%	92.7%	112%	105%	99.5%	120%	113%	103%	104%	103%	99.4%	98.8%	0	0	0	0	> 10 µM	> 10 µM	> 10 µM	> 10 µM	–	–	–	–	–	–	–
COC[C@@H](c1ccc(C(F)(F)F)cc1)N1CCN(C2(C)CCN(C(=O)c3c(C)ncnc3C)CC2)C[C@@H]1C [vicriviroc]	106%	93.6%	104%	96.6%	104%	–	–	–	–	–	98.8%	101%	98.9%	101%	84.8%	100%	94.2%	95%	96.6%	95%	0	–	0.2	0	> 10 µM	–	> 10 µM	> 10 µM	95.3%	97%	89.9%	95.7%	94.7%	0	> 10 µM

Reference: the supplement of paper PMC13380429
